From publication PMC3675820 (Molecular & Cellular Proteomics : MCP, 2013)

Columns and labels:
Conditions in all cases: 500 μM ATPγS vs none; normal (aerated) culture lysate; competitive
[1] = target: Polyphosphate kinase, Ppk (Mycobacterium tuberculosis, UniProt P9WHV9)
Universal stress protein = Universal stress protein (Mycobacterium tuberculosis, UniProt P9WLB5)
Adenylate kinase, Adk = Adenylate kinase, Adk (Mycobacterium tuberculosis, UniProt P9WKF5)
[2] = target: ATP-dependent protease ATP-binding subunit, ClpC1 (Mycobacterium tuberculosis, UniProt P9WPC9)
Sequence of ATP-dependent protease ATP-binding subunit, ClpC1 (P9WPC9 whole entry): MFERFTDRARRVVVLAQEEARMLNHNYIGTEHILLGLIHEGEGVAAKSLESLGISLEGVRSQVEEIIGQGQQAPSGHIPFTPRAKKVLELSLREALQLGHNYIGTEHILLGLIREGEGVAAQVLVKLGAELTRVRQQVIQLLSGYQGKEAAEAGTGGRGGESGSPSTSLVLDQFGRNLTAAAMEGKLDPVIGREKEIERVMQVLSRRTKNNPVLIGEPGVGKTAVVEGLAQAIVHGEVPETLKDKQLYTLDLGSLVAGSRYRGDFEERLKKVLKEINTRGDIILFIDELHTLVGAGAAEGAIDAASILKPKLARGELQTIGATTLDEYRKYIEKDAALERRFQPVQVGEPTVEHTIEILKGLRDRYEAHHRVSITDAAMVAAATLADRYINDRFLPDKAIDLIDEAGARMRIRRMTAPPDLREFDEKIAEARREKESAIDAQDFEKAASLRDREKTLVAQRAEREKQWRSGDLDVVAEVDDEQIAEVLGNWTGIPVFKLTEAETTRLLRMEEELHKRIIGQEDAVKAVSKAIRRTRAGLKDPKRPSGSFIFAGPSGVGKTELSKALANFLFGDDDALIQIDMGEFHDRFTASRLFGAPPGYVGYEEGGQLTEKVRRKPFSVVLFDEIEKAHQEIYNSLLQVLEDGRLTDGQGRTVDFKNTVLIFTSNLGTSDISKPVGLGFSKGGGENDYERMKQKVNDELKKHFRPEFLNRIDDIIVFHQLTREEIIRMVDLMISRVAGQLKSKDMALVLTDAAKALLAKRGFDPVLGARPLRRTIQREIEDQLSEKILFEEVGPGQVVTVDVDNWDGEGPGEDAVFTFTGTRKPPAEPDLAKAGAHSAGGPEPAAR

[3] = target: Phosphoglycerate kinase, Pgk (Mycobacterium tuberculosis, UniProt P9WID1)
Sequence of Phosphoglycerate kinase, Pgk (P9WID1 whole entry): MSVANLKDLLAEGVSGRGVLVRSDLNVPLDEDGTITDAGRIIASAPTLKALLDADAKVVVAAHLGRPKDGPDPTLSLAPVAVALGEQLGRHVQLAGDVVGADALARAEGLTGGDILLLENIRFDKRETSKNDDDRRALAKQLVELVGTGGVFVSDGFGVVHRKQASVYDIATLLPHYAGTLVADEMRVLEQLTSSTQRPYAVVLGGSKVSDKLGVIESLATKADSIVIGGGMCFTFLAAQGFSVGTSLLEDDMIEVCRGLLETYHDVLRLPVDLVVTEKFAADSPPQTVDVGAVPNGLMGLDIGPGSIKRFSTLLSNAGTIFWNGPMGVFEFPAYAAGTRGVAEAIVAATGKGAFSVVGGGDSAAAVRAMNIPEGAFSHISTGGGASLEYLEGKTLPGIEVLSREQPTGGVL

Sequence of Adenylate kinase, Adk (P9WKF5 whole entry): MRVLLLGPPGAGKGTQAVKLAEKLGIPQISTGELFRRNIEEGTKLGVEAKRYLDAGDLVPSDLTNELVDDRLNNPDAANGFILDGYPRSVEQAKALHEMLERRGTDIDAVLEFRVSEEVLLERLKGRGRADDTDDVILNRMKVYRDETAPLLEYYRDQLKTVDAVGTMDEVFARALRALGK
Sequence of Polyphosphate kinase, Ppk (P9WHV9 whole entry): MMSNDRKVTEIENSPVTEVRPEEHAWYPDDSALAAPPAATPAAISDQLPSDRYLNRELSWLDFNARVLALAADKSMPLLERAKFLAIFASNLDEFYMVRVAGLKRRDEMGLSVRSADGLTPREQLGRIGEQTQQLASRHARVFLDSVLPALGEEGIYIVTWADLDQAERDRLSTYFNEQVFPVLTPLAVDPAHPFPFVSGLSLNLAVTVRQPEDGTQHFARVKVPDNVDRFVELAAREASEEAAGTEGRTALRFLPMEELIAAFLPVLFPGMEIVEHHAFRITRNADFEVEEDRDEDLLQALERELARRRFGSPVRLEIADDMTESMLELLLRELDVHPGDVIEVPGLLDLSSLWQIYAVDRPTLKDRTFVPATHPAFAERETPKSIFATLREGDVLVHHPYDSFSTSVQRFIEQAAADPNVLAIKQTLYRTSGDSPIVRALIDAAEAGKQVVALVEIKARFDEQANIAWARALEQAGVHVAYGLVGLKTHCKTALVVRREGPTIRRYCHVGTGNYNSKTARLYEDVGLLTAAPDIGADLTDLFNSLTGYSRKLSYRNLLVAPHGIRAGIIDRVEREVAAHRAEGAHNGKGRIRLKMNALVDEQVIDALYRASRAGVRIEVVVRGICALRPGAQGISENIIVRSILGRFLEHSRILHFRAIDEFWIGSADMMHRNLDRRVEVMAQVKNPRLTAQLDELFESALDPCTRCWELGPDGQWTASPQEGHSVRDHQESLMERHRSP
Sequence of Universal stress protein (P9WLB5 whole entry): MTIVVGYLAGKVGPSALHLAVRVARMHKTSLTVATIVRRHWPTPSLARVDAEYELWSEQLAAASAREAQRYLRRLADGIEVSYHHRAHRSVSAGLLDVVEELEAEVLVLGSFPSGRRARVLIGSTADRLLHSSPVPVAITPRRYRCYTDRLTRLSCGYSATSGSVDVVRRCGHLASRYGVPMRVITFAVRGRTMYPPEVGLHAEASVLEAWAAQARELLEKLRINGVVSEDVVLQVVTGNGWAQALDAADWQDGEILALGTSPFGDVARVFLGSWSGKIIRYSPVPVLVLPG

Nc1ncnc2c1ncn2[C@@H]1O[C@H](COP(=O)(O)OP(=O)(O)OP(O)(O)=S)[C@@H](O)[C@H]1O [ATPγS, adenosine 5′-[γ-thio]triphosphate tetralithium]
Fold change [1]: 6.80 fold
Fold change (Universal stress protein): 4.75 fold
Fold change (Adenylate kinase, Adk): 2.12 fold
Fold change [2]: 3.98 fold
Fold change [3]: 6.56 fold
